Assay: Dose-adjusted serum concentrations of drug and metabolite (LC-MS/MS) by CYP2C19 and CYP2D6 metabolizer group
Assay type: in vivo, human
Settings: for B, ARI concentrations in serum, CYP2D6 IM+PM / B, DHA concentrations in serum, CYP2D6 IM+PM: vs NM, dose-adjusted
From the text: The 16-week study protocol consisted of two phases following screening and baseline visits. […] Blood samples were collected on Weeks 2, 10, and 16 to measure medication levels and on Week 4 for pharmacogenetic analyses. The methods used for the quantification of serum levels of drug and metabolite concentrations is described in the Supplementary Methods.
Serum concentrations were adjusted for dosage (i.e., ng/mL/mg). Sampling time (i.e., hours since the last dose) was entered as a covariate in the regression models to account for when the medication was taken.
The CYP2C19 metabolizer group was not included as a fixed effect covariate, as CYP2C19 is not known to be involved in the metabolism of ARI. […]
Collection of blood samples and quantification of serum drug and metabolite concentrations Participants self-reported the time at which the last dosage of the study medication was taken during the collection of the blood samples. […]
major metabolites, (S-DCT) and (DHA), were performed at the CAMH Clinical Laboratory using LC-MS/MS technology. Briefly, a mix of deuterated internal standards (Cerilliant) was added to 100 µL of each serum specimen, calibrator (Cerilliant) and quality control (MassCheck Antidepressants/Neuroleptics, Level 1 and Level 2). Proteins were precipitated with 300 µL of 9:1 Acetonitrile:Methanol (Sigma-Aldrich) followed by 5 min centrifugation at 9000 rpm. 25 µL of each supernatant was diluted with 200 µL of 0.1% Formic acid (Sigma-Aldrich) and then analyzed on the LC-MS/MS platform consisting of ThermoFisher TSQ Quantum Ultra mass spectrometer coupled with ThermoFisher Surveyor LC pump and HTC PAL autosampler fitted with a Kinetex F5 2.6 µm, 100 x 2.1 mm column (Phenomenex). Six minute gradient elution with 0.1% Formic Acid (mobile phase A) and Acetonitrile (mobile phase B) was applied. Collision energies ranged from 14 to […]
calibration curve ranging from 10 to 1000 ng/mL for each analyte.
Vendor nominal means for quality controls were used to assess the assay accuracy for each of the four analytes […]
precision was considered acceptable assay performance.
Data was analyzed with ThemoFisher XCalibur software.

| B, ARI concentrations in serum, CYP2D6 IM+PM (Week 10, ESC+ARI arm) | B, ARI concentrations in serum, CYP2D6 IM+PM (Week 16, ESC+ARI arm) | lower DHA, CYP2D6 IM + PMs relative to NMs (Week 10, ESC + ARI) [%] | B, DHA concentrations in serum, CYP2D6 IM+PM (Week 10, ESC+ARI arm) | B, DHA concentrations in serum, CYP2D6 IM+PM (Week 16, ESC+ARI arm) | Compound |
| --- | --- | --- | --- | --- | --- |
| -2.48 | 1.54 | – | – | – | O=C1CCc2ccc(OCCCCN3CCN(c4cccc(Cl)c4Cl)CC3)cc2N1 [ARI, Aripiprazole] |
| – | – | 17.4 | -0.99 | -0.47 | O=c1ccc2ccc(OCCCCN3CCN(c4cccc(Cl)c4Cl)CC3)cc2[nH]1 [DHA, dehydroaripiprazole] |

From PMC9448818 (Translational Psychiatry, 2022)
